The text below walks through data of ChEMBL document CHEMBL5034019, “Discovery of the Next-Generation Pan-TRK Kinase Inhibitors for the Treatment of Cancer” (J Med Chem, 2021).

The term fraction unbound denotes the share of the substance not bound to proteins or other matrix. As usually defined, the Papp A→B is how fast a substance crosses the layer from the apical side. The IC50 is the concentration needed to halve the response being measured. One may read the AUC(0-t) as exposure summed from dosing to a finite time, without extrapolation to infinity. High values mean more exposure, low ones less exposure. As usually defined, the clearance is the volume of plasma or blood freed of the substance per unit of time. Higher therefore signals efficient removal. Usually Cmax stands for the maximum level reached in the sampled fluid or tissue. One may read the Tmax as the time at which the peak concentration occurs. As usually defined, the Vd is a proportionality between amount in the body and measured concentration, not a real space. As usually defined, the half-life is the time in which the quantity being followed falls by half. Lower therefore signals fast loss.

Series [1] can be described thus: Metabolic stability in mouse liver microsomes assessed as intrinsic clearance at 1 uM by LC-MS/MS analysis. The following applies: read-out: CLH. It counts as ADME, Microsome. (In general: Liver microsomes are a subcellular fraction often used to study metabolism.)
A short description of series [2]: Protein binding in rat plasma assessed as unbound fraction by LC-MS/MS based equilibrium dialysis method. It counts as ADME, cell-free. Background: Equilibrium dialysis compares concentrations on both sides of a semipermeable membrane.
Series [3] is described as follows: Protein binding in human plasma assessed as unbound fraction by LC-MS/MS based equilibrium dialysis method. It counts as ADME, cell-free.
Series [4] in a line: Protein binding in mouse plasma assessed as unbound fraction by LC-MS/MS based equilibrium dialysis method. It counts as ADME, cell-free.
A short description of series [5]: Apparent permeability across apical to basolateral side in human Caco-2 cells incubated for 2 hrs by LC-MS/MS analysis. It counts as ADME, cell-based. (Caco-2 cells form a polarised layer with tight junctions and transporters.)
The nature of series [6]: Metabolic stability in human liver microsomes assessed as intrinsic clearance at 1 uM by LC-MS/MS analysis. It counts as ADME, Microsome. The following applies: read-out: CLH.
Series [7] is described as follows: Metabolic stability in dog liver microsomes assessed as intrinsic clearance at 1 uM by LC-MS/MS analysis. It counts as ADME, Canis lupus familiaris, Microsome. The following applies: read-out: CLH.
Series [8] can be described thus: Protein binding in dog plasma assessed as unbound fraction by LC-MS/MS based equilibrium dialysis method. It counts as ADME, cell-free, Canis lupus familiaris.
Series [9] in a line: Metabolic stability in rat liver microsomes assessed as intrinsic clearance at 1 uM by LC-MS/MS analysis. The following applies: read-out: CLH. It counts as ADME, Microsome.
The target in series [10] is Voltage-gated inwardly rectifying potassium channel KCNH2 (Homo sapiens, UniProt Q12809). Briefly: Inhibition of human ERG.
The target in series [11] is High affinity nerve growth factor receptor (Homo sapiens, UniProt P04629).
Description: Inhibition of TrKA (unknown origin) incubated for 120 mins in presence of 33P-ATP
Series [12] has as its system BaF3. Kind of series: Cytotoxicity against mouse BaF3 cells transfected with TrKA G623R mutant assessed as reduction in cell viability by MTT assay. It counts as functional, cell-based.
The test system of series [13] is BaF3. Kind of series: Cytotoxicity against mouse BaF3 cells transfected with TrKA G595R mutant assessed as reduction in cell viability by MTT assay. It counts as functional, cell-based.
The test system of series [14] is BaF3. Kind of series: Cytotoxicity against mouse BaF3 cells transfected with SLC34A2-Ros1 assessed as reduction in cell viability by MTT assay. It counts as functional, cell-based.
Series [15] deals with ALK tyrosine kinase receptor (Homo sapiens, UniProt Q9UM73).
Description: Inhibition of ALK (unknown origin) incubated for 120 mins in presence of 33P-ATP
Series [16] addresses High affinity nerve growth factor receptor (Homo sapiens, UniProt P04629, G595R).
The target of series [17] is Cytochrome P450 2C19 (Homo sapiens, UniProt P33261). Kind of series: Inhibition of CYP2C19 in human pooled liver microsomes using S-mephenytoin as substrate in presence of NADPH by LC-MS/MS analysis. It counts as ADME.
A short description of series [18]: AUC (0 to t) in Sprague-Dawley rat at 10 mg/kg, po measured up to 24 hrs by LC-MS/MS analysis. The following applies: in vivo. Details: route oral, dose 10 mg/kg, time <=24. It counts as ADME, organism-based.
Series [19] is described as follows: Clearance in Sprague-Dawley rat at 3 mg/kg measured up to 24 hrs by LC/MS/MS analysis. It counts as ADME, organism-based. The following applies: in vivo.
Series [20] is described as follows: Cmax in Sprague-Dawley rat at 10 mg/kg, po measured up to 24 hrs by LC-MS/MS analysis. It counts as ADME, organism-based. Details: route oral, dose 10 mg/kg, time <=24. The following applies: in vivo.
Series [21] deals with BaF3. Kind of series: cells. The following applies: Mus musculus.
Description: Cytotoxicity against mouse BaF3 cells transfected with TrKA assessed as reduction in cell viability by MTT assay
The target in series [22] is Cytochrome P450 2D6 (Homo sapiens, UniProt P10635). Briefly: Inhibition of CYP2D6 in human pooled liver microsomes using dextromethorphan as substrate in presence of NADPH by LC-MS/MS analysis. It counts as ADME.
Series [23] has as its target Cytochrome P450 2C9 (Homo sapiens, UniProt P11712). Briefly: Inhibition of CYP2C9 in human pooled liver microsomes using diclofenac as substrate in presence of NADPH by LC-MS/MS analysis. It counts as ADME.
The nature of series [24]: Tmax in Sprague-Dawley rat at 10 mg/kg, po measured up to 24 hrs by LC-MS analysis. It counts as ADME, organism-based. The following applies: in vivo.
Series [25] concerns the target T1, Cytochrome P450 1A2 (Homo sapiens, UniProt P05177).
T1 sequence (P05177 whole entry): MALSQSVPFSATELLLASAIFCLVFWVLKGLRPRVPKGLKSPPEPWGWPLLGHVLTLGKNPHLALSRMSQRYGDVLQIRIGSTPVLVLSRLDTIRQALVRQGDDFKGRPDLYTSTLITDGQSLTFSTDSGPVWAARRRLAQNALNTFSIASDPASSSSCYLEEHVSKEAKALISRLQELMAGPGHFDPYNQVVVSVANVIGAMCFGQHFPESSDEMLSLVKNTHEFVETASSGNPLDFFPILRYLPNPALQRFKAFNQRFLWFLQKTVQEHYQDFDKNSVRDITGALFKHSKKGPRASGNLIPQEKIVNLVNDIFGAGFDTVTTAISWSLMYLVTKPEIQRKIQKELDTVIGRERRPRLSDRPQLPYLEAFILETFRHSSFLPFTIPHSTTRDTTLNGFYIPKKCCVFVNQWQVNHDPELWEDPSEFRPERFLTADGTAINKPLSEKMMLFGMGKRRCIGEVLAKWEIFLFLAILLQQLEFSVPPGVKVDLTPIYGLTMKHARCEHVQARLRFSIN
Kind of series: Inhibition of CYP1A2 in human pooled liver microsomes using phenacetin as substrate in presence of NADPH by LC-MS/MS analysis. It counts as ADME.

A short description of series [26]: Kinetic solubility of the compound. It counts as physicochemical. The following applies: read-out: Kinetic_solubility.
Series [27] concerns the target Cytochrome P450 3A4 (Homo sapiens, UniProt P08684). Briefly: Inhibition of CYP3A4 in human pooled liver microsomes using midazolam and testosterone as substrate in presence of NADPH by LC-MS/MS analysis. It counts as ADME.
Series [28] can be described thus: AUC (0 to t) in Sprague-Dawley rat at 3 mg/kg measured up to 24 hrs by LC-MS/MS analysis. It counts as ADME, organism-based. On the set-up: dose 3 mg/kg, time <=24. The following applies: in vivo.
Series [29] in a line: C0 in Sprague-Dawley rat at 3 mg/kg measured up to 24 hrs by LC/MS/MS analysis. It counts as ADME, organism-based. The following applies: in vivo.
The subject of series [30] is BaF3. Briefly: Cytotoxicity against mouse BaF3 cells transfected with TrKA F589L mutant assessed as reduction in cell viability by MTT assay. It counts as functional, cell-based.
Series [31] in a line: Oral bioavailability in Sprague-Dawley rat at 10 mg/kg measured up to 24 hrs by LC/MS/MS analysis. It counts as ADME, organism-based. The following applies: in vivo.
The nature of series [32]: Volume of distribution in Sprague-Dawley rat at 3 mg/kg measured up to 24 hrs by LC-MS/MS analysis. It counts as ADME, organism-based. The following applies: in vivo.
Series [33] can be described thus: Half life in Sprague-Dawley rat at 3 mg/kg measured up to 24 hrs by LC-MS/MS analysis. The following applies: in vivo. It counts as ADME, organism-based.

Converted amounts (≈) assume the structure as drawn.

Chain of High affinity nerve growth factor receptor (Homo sapiens, UniProt P04629) (P04629 whole entry): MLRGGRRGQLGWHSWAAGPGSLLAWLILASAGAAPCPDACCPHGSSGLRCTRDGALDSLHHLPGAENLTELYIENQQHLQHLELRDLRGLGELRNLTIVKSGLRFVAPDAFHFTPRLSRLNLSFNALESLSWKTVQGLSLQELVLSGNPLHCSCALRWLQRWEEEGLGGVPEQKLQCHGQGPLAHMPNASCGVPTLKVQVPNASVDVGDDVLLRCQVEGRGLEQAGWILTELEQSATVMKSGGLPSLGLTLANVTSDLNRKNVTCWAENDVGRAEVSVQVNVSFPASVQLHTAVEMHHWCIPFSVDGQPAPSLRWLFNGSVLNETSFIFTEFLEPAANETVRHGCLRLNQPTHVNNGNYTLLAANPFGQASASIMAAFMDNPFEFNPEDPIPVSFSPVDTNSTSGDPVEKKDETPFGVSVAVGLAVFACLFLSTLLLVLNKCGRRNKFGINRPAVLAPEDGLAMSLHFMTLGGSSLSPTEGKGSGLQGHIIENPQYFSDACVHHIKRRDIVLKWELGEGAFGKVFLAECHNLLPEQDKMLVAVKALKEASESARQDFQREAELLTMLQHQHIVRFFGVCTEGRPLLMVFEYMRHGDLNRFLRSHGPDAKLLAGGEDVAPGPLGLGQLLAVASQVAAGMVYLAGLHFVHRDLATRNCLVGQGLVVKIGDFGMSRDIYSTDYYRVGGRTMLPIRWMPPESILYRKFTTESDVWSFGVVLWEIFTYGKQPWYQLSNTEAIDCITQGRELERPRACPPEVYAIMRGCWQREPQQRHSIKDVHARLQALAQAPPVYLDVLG
Chain of Voltage-gated inwardly rectifying potassium channel KCNH2 (Q12809 whole entry): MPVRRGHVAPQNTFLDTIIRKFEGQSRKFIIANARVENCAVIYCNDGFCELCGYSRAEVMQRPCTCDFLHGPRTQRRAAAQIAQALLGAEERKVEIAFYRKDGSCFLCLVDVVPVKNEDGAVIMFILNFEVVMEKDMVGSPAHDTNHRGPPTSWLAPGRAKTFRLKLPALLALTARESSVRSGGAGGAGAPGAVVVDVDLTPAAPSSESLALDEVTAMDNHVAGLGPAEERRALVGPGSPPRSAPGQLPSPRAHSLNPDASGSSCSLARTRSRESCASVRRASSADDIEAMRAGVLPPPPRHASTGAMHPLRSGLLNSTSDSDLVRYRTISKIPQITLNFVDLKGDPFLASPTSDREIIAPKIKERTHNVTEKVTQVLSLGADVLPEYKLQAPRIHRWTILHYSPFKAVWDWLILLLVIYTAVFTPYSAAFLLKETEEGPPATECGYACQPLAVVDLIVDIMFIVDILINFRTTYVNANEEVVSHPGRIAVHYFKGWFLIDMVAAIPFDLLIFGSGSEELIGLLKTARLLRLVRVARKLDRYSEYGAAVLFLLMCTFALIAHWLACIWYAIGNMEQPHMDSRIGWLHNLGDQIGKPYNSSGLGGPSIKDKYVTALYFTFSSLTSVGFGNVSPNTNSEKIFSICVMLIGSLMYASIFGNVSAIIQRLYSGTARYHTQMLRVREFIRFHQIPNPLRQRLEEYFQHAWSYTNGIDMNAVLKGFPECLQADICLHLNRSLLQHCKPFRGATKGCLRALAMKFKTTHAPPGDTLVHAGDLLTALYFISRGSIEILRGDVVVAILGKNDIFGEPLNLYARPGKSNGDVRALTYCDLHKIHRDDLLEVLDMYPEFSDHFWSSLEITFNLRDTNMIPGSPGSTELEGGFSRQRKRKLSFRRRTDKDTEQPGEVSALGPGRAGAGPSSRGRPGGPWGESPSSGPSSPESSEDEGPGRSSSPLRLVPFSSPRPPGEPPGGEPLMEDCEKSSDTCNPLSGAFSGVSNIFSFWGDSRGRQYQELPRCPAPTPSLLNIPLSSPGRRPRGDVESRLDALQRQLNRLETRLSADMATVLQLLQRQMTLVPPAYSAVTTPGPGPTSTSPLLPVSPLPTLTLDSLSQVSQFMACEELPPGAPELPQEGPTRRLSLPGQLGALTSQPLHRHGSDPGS
Chain of Cytochrome P450 3A4 (P08684 whole entry): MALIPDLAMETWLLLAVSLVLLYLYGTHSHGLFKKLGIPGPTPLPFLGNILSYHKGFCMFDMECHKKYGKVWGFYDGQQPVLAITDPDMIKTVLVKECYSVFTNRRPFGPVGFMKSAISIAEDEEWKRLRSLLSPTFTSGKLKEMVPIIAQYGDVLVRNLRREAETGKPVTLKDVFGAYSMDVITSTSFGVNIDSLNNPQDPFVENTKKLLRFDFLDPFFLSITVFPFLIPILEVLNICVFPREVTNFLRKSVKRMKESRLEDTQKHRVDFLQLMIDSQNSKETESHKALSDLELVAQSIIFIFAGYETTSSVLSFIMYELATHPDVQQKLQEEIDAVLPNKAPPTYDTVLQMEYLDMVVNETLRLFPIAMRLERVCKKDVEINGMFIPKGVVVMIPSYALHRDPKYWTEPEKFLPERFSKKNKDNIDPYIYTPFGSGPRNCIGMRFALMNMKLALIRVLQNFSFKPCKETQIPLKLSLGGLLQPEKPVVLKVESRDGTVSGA
Chain of Cytochrome P450 2D6 (P10635 whole entry): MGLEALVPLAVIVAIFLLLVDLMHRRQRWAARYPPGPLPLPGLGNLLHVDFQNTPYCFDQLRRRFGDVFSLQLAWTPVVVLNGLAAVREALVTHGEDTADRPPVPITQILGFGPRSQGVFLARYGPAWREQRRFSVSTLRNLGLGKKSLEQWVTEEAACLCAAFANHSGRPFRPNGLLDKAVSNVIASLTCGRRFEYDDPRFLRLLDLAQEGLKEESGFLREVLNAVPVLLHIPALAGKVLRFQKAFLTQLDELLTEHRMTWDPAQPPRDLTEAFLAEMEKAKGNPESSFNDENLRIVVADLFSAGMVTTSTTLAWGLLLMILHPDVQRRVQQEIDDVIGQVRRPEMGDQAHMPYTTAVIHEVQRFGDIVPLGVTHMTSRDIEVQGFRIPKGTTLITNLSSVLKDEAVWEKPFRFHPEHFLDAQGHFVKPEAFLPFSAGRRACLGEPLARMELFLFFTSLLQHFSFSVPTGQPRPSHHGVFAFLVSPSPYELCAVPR
Chain of Cytochrome P450 2C19 (P33261 whole entry): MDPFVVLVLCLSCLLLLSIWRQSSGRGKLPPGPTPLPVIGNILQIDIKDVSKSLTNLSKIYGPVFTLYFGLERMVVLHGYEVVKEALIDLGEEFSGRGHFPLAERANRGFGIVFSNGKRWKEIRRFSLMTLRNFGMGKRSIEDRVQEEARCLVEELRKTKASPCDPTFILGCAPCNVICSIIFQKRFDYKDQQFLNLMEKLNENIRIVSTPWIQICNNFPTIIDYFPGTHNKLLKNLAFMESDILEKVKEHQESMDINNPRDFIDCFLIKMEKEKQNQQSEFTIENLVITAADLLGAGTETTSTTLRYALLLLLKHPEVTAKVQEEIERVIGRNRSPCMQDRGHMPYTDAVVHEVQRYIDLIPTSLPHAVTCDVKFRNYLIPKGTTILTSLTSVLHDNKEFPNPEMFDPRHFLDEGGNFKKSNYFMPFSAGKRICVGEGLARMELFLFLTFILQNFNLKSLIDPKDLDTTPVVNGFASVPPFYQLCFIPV
Chain of ALK tyrosine kinase receptor (Q9UM73 whole entry): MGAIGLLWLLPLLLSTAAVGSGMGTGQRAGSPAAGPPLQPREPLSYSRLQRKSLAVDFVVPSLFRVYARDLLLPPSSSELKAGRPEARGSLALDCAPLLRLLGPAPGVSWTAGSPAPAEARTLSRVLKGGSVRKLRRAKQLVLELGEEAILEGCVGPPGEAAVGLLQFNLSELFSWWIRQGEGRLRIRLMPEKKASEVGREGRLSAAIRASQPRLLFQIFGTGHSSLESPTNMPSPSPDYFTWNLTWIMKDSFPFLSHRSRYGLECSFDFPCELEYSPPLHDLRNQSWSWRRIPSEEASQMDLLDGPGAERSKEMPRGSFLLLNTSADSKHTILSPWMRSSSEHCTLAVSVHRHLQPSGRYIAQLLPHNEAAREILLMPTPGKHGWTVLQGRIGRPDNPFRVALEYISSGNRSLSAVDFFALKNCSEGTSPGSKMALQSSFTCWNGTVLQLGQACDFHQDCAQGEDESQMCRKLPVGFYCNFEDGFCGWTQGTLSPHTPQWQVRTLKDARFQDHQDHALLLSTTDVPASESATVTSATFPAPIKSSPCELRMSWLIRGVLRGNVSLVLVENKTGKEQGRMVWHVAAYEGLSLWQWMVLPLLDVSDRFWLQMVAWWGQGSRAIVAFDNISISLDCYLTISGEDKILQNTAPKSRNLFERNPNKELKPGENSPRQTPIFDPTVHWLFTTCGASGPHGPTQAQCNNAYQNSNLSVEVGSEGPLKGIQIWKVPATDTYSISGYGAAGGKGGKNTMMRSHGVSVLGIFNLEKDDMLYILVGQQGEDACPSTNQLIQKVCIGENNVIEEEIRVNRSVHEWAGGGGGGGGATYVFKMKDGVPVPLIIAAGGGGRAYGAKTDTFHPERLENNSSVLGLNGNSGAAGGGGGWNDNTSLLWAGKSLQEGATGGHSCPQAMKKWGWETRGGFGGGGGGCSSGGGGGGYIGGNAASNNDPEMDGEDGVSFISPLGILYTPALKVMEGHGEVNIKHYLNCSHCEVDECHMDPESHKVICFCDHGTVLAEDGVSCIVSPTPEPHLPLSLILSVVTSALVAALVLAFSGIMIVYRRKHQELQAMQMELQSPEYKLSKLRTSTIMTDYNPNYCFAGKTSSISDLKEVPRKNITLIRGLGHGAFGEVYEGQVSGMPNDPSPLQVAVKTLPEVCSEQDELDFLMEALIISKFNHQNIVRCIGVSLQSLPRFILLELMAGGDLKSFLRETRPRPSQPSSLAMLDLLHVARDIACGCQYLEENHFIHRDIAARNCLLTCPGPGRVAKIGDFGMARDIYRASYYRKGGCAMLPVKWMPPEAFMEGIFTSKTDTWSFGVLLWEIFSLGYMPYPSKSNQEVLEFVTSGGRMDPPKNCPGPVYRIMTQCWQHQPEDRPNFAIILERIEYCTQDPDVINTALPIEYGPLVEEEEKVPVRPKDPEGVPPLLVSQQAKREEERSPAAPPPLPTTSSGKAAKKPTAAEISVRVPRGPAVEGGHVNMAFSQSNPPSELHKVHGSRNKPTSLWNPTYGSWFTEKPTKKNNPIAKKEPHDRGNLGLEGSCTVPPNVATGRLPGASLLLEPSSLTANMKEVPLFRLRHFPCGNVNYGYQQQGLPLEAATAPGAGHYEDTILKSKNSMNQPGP

On to `O=C1NC2(CC2)COc2ncc(F)cc2[C@H]2CNCCN2c2ccn3ncc1c3n2`, for which the CLint scaled at 1 µM is 342 mL/min/kg in [1], 43 mL/min/kg in series [6], 74 mL/min/kg in series [7] and 29 mL/min/kg in series [9]. Besides, the free fraction (fraction unbound) was determined as 0.3 in [2], 0.36 in series [3], 0.28 in series [4] and 0.34 in series [8]. In addition, the Papp A→B at 2 h in [5] is 3.9 ×10⁻⁶ cm/s. In series [10], this compound yielded an IC50 of 6700 nM.

Take `O=C1NC2(CC2)COc2ncc(F)cc2[C@H]2CCCCN2c2ccn3ncc1c3n2`: the IC50 is 3.2 nM in series [11]; 5.8 nM in series [12]; 0.4 nM in series [13]; 12.6 nM in series [14]; 18.5 nM in series [15]; 2.1 nM in series [16]. For the same compound, the CLint scaled at 1 µM in [1] was found to be 1010 mL/min/kg; in [6], 242 mL/min/kg; in series [7], 268 mL/min/kg; in [9], 980 mL/min/kg. Also, the fraction unbound came out at 0.02 in series [2], 0.02 in series [3], 0.02 in [4] and 0.03 in [8]. Further, the Papp A→B at 2 h in series [5] is 16.3 ×10⁻⁶ cm/s.

The compound `C[C@H]1Nc2ccn3ncc(c3n2)C(=O)N2CCN(CC2)c2ccc(F)cc21` had an IC50 in series [11] of more than 1000 nM.

Consider `C[C@@H]1COc2ncc(F)cc2C23CC2CCN3c2ccn3ncc(c3n2)C(=O)N1` (some centres undefined), for which it took 67.5 nM to reach half-maximal inhibition in [11] (IC50).

In the case of `C[C@H]1CNC(=O)c2cnn3ccc(nc23)N[C@H](C)c2cc(F)ccc2O1` [REPOTRECTINIB], the IC50 was 12300 nM in series [17]; 4.8 nM in [12]; 1.8 nM in series [21]; 28500 nM in [22]; 6400 nM in series [23]; more than 50000 nM in series [25]. Further, the 50% inhibitory concentration (IC50) in series [13] is 8 nM; in series [14], 2.2 nM; in [27] it was more than 50000 nM; in series [30], 0.7 nM. The AUC(0-t) at 24 h is 59.7 µM·h in series [18] and 15 µM·h in series [28]. The clearance in series [19] is 9.4 mL/min/kg. The compound further yielded a Cmax in series [20] of 16.9 µM. In addition, the CLint scaled at 1 µM in [1] is 982 mL/min/kg; in series [6] it was 29 mL/min/kg; in series [7] it was 21 mL/min/kg; in [9] it was 49 mL/min/kg. Also, in series [24], the Tmax was 0.8 h. In addition, the fraction unbound in series [2] was 0.06; in series [3], 0.05; in series [4] it was 0.05; in series [8], 0.09. Also, the solubility kinetic in series [26] is 65.8 µM (≈ 23.4 µg/mL). This compound also returned a C0 in [29] of 12.87 µM. Further, the bioavailability in series [31] came to 119%. In series [5], the Papp A→B at 2 h came to 0.9 ×10⁻⁶ cm/s. In series [32], this compound showed a Vd of 1.1 L/kg. The same compound had a half-life in series [33] of 2.8 h.

`C[C@H]1NC(=O)c2cnn3ccc(nc23)N[C@H](C)c2cc(F)ccc2NC1=O` yielded an IC50 in series [11] of 846 nM.

Turning to `C[C@H]1CNS(=O)(=O)c2cnn3ccc(nc23)N[C@H](C)c2cc(F)ccc2O1`, the 50% inhibitory concentration (IC50) in [11] was more than 1000 nM.

In the case of `C[C@H]1Nc2ccn3ncc(c3n2)C(=O)N2CCC(CC2)c2ccc(F)cc21`, in [11], the IC50 was more than 1000 nM.
